From PubChem BioAssay AID2060900 (Molecular Pharmacology Branch, DTP, NCI, 2025)

Tested on: 521955-158-R2-J5-PDC complex spheroids, viability
Assay: Anticancer human tumor 521955-158-R2-J5-PDC patient-derived pancreatic carcinoma cell line growth inhibition [RAS]
Conditions: for IC50: curve of first compound; for viability, T/C: stronger effect = lower value
Procedure, shortened: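 Tumour cells grown as complex spheroids with HUVEC endothelial cells and mesenchymal stem cells, treated with RAS pathway inhibitor combinations. Each agent spans half-log steps from near clinical Cmax, or 10 microM where Cmax is unknown.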

[1] = second compound 0.0316 µM, first compound 0.0316 µM
[2] = second compound 0.0316 µM, first compound 0.1 µM
[3] = second compound 0.0316 µM, first compound 0.316 µM
[4] = second compound 0.0316 µM, first compound 1 µM
[5] = second compound 0.1 µM, first compound 0.0316 µM
[6] = second compound 0.1 µM, first compound 0.1 µM
[7] = second compound 0.1 µM, first compound 0.316 µM
[8] = second compound 0.1 µM, first compound 1 µM
[9] = second compound 0.316 µM, first compound 0.0316 µM
[10] = second compound 0.316 µM, first compound 0.1 µM
[11] = second compound 0.316 µM, first compound 0.316 µM
[12] = second compound 0.316 µM, first compound 1 µM
[13] = second compound 1 µM, first compound 0.0316 µM
[14] = second compound 1 µM, first compound 0.1 µM
[15] = second compound 1 µM, first compound 0.316 µM
[16] = second compound 1 µM, first compound 1 µM
[17] = second compound 3.16 µM, first compound 0.0316 µM
[18] = second compound 3.16 µM, first compound 0.1 µM
[19] = second compound 3.16 µM, first compound 0.316 µM
[20] = second compound 3.16 µM, first compound 1 µM
[21] = second compound 10 µM, first compound 0.0316 µM
[22] = second compound 10 µM, first compound 0.1 µM
[23] = second compound 10 µM, first compound 0.316 µM
[24] = second compound 10 µM, first compound 1 µM
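Note: compound exposure lasted seven days before the viability read.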
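Throughout, for viability, T/C: spheroids also contain HUVEC endothelial cells and mesenchymal stem cells as stroma.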

Question: With `O=C(c1ccc(F)c(F)c1Nc1ccc(I)cc1F)N1CC(O)([C@@H]2CCCCN2)C1` + C#Cc1c(F)ccc2cc(O)cc(-c3ncc4c(N5CC6CCC(C5)N6)nc(OCC56CCCN5CC(F)C6)nc4c3F)c12 as the molecule, how does the IC50 (second compound 0.0316 µM) read?
Answer: 13.9 nM

Question: What about the IC50 (second compound 0.1 µM) of the same molecule?
Answer: 9.71 nM

Question: What about the IC50 (second compound 0.316 µM) of the same molecule?
Answer: 5.09 nM

Question: And the IC50 (second compound 1 µM)?
Answer: < 3.16 nM

Question: What about the IC50 (second compound 3.16 µM) of the same molecule?
Answer: < 3.16 nM

Question: What about the IC50 (second compound 10 µM) of the same molecule?
Answer: < 3.16 nM

Question: What about the viability, T/C (second compound 0.0316 µM, first compound 0.00316 µM) of the same molecule?
Answer: 57.3%

Question: What about the viability, T/C (second compound 0.0316 µM, first compound 0.01 µM) of the same molecule?
Answer: 53%

Question: What about the viability, T/C [1] of the same molecule?
Answer: 43.3%

Question: And the viability, T/C [2]?
Answer: 35.2%

Question: And the viability, T/C [3]?
Answer: 23.4%

Question: What about the viability, T/C [4] of the same molecule?
Answer: 15.4%

Question: What about the viability, T/C (second compound 0.1 µM, first compound 0.00316 µM) of the same molecule?
Answer: 54.5%

Question: And the viability, T/C (second compound 0.1 µM, first compound 0.01 µM)?
Answer: 54.2%

Question: And the viability, T/C [5]?
Answer: 34.3%

Question: What about the viability, T/C [6] of the same molecule?
Answer: 29.3%

Question: And the viability, T/C [7]?
Answer: 20.1%

Question: What about the viability, T/C [8] of the same molecule?
Answer: 15%

Question: And the viability, T/C (second compound 0.316 µM, first compound 0.00316 µM)?
Answer: 51.5%

Question: And the viability, T/C (second compound 0.316 µM, first compound 0.01 µM)?
Answer: 47.6%

Question: What about the viability, T/C [9] of the same molecule?
Answer: 38.4%

Question: And the viability, T/C [10]?
Answer: 36%

Question: And the viability, T/C [11]?
Answer: 19.1%

Question: What about the viability, T/C [12] of the same molecule?
Answer: 17%

Question: What about the viability, T/C (second compound 1 µM, first compound 0.00316 µM) of the same molecule?
Answer: 44.6%

Question: And the viability, T/C (second compound 1 µM, first compound 0.01 µM)?
Answer: 43%

Question: And the viability, T/C [13]?
Answer: 38.6%

Question: What about the viability, T/C [14] of the same molecule?
Answer: 23.2%

Question: What about the viability, T/C [15] of the same molecule?
Answer: 14.4%

Question: What about the viability, T/C [16] of the same molecule?
Answer: 12.4%

Question: And the viability, T/C (second compound 3.16 µM, first compound 0.00316 µM)?
Answer: 43.9%

Question: And the viability, T/C (second compound 3.16 µM, first compound 0.01 µM)?
Answer: 41.9%

Question: What about the viability, T/C [17] of the same molecule?
Answer: 27%

Question: What about the viability, T/C [18] of the same molecule?
Answer: 18.4%

Question: And the viability, T/C [19]?
Answer: 10.9%

Question: And the viability, T/C [20]?
Answer: 7.26%

Question: What about the viability, T/C (second compound 10 µM, first compound 0.00316 µM) of the same molecule?
Answer: 41.3%

Question: And the viability, T/C (second compound 10 µM, first compound 0.01 µM)?
Answer: 29.1%

Question: What about the viability, T/C [21] of the same molecule?
Answer: 27.2%

Question: And the viability, T/C [22]?
Answer: 15.3%

Question: And the viability, T/C [23]?
Answer: 2.76%

Question: And the viability, T/C [24]?
Answer: 2.89%

Question: `CC1(O)CCCC1n1c(=O)c(C(F)F)cc2cnc(NC3CCN(S(C)(=O)=O)CC3)nc21` (centres undefined) + C#Cc1c(F)ccc2cc(O)cc(-c3ncc4c(N5CC6CCC(C5)N6)nc(OCC56CCCN5CC(F)C6)nc4c3F)c12 was tested. Which IC50 (second compound 0.0316 µM) did it give?
Answer: > 10000 nM

Question: What about the IC50 (second compound 0.1 µM) of the same molecule?
Answer: 3760 nM

Question: What about the IC50 (second compound 0.316 µM) of the same molecule?
Answer: < 31.6 nM

Question: And the IC50 (second compound 1 µM)?
Answer: 31.6 nM

Question: What about the IC50 (second compound 3.16 µM) of the same molecule?
Answer: < 31.6 nM

Question: And the IC50 (second compound 10 µM)?
Answer: < 31.6 nM

Question: And the viability, T/C [1]?
Answer: 53.9%

Question: And the viability, T/C [2]?
Answer: 48%

Question: What about the viability, T/C [3] of the same molecule?
Answer: 60.1%

Question: And the viability, T/C [4]?
Answer: 68.4%

Question: And the viability, T/C (second compound 0.0316 µM, first compound 3.16 µM)?
Answer: 75.1%

Question: And the viability, T/C (second compound 0.0316 µM, first compound 10 µM)?
Answer: 24.9%

Question: And the viability, T/C [5]?
Answer: 48.8%

Question: And the viability, T/C [6]?
Answer: 56.6%

Question: What about the viability, T/C [7] of the same molecule?
Answer: 43.4%

Question: And the viability, T/C [8]?
Answer: 53.9%

Question: What about the viability, T/C (second compound 0.1 µM, first compound 3.16 µM) of the same molecule?
Answer: 73%

Question: And the viability, T/C (second compound 0.1 µM, first compound 10 µM)?
Answer: 21.3%

Question: What about the viability, T/C [9] of the same molecule?
Answer: 44.5%

Question: And the viability, T/C [10]?
Answer: 37.4%

Question: What about the viability, T/C [11] of the same molecule?
Answer: 41.1%

Question: What about the viability, T/C [12] of the same molecule?
Answer: 51.3%

Question: And the viability, T/C (second compound 0.316 µM, first compound 3.16 µM)?
Answer: 63.1%

Question: And the viability, T/C (second compound 0.316 µM, first compound 10 µM)?
Answer: 19.5%

Question: And the viability, T/C [13]?
Answer: 52.3%

Question: What about the viability, T/C [14] of the same molecule?
Answer: 41.4%

Question: What about the viability, T/C [15] of the same molecule?
Answer: 39.8%

Question: What about the viability, T/C [16] of the same molecule?
Answer: 47.8%

Question: What about the viability, T/C (second compound 1 µM, first compound 3.16 µM) of the same molecule?
Answer: 59.5%

Question: What about the viability, T/C (second compound 1 µM, first compound 10 µM) of the same molecule?
Answer: 21.6%

Question: What about the viability, T/C [17] of the same molecule?
Answer: 45.9%

Question: What about the viability, T/C [18] of the same molecule?
Answer: 31.5%

Question: And the viability, T/C [19]?
Answer: 38.8%

Question: And the viability, T/C [20]?
Answer: 40.6%

Question: What about the viability, T/C (second compound 3.16 µM, first compound 3.16 µM) of the same molecule?
Answer: 56.6%

Question: What about the viability, T/C (second compound 3.16 µM, first compound 10 µM) of the same molecule?
Answer: 24.4%

Question: And the viability, T/C [21]?
Answer: 42.4%

Question: What about the viability, T/C [22] of the same molecule?
Answer: 30.6%

Question: What about the viability, T/C [23] of the same molecule?
Answer: 40.4%

Question: And the viability, T/C [24]?
Answer: 46.2%

Question: And the viability, T/C (second compound 10 µM, first compound 3.16 µM)?
Answer: 62.8%

Question: And the viability, T/C (second compound 10 µM, first compound 10 µM)?
Answer: 12.3%
